In patent publication EP1561465A2, “Methods of use of fluoroquinolone compounds against bacteria” (LG Life Sciences, Ltd., priority 1999, dated 2001):
“And” between values parts separate entries of the source, which are not always exact repeats. Equal entries are not always repeated. Where two headings read alike, the source gives them in different places.

How the values were obtained:
Type in all cases: cell-based
Enterococcus faecium = assay: MIC by NCCLS broth microdilution, 1100 Japanese clinical isolates 1997-1998; settings: for MIC: Enterococcus faecium
Streptococcus pyogenes [1] = assay: as above; settings: Streptococcus pyogenes (n=51)
[2] = tested on: Gram negative anaerobic pathogens and facultative anaerobic pathogens; assay: MIC by agar dilution, Brucella HK agar with 5% laked sheep blood, anaerobic reference strains
Serratia marcescens = assay: MIC by NCCLS broth microdilution, 1100 Japanese clinical isolates 1997-1998; settings: Serratia marcescens (n=30)
Moraxella catarrhalis = assay: MIC by two-fold serial agar dilution, Sensitivity Disk agar-N (Kitasato isolates); settings: Moraxella catarrhalis (22)
Staphylococcus aureus [3] = assay: MIC by NCCLS broth microdilution, 1100 Japanese clinical isolates 1997-1998; settings: for MIC: Staphylococcus aureus quinolone resistant
Staphylococcus aureus [4] = assay: MIC by NCCLS reference broth microdilution, 450 respiratory tract pathogens
Klebsiella pneumoniae = assay: as above; settings: for MIC50 / MIC90: Klebsiella pneumoniae
Streptococcus pyogenes [5] = assay: as above; settings: Streptococcus pyogenes
[6] = Staphylococcus aureus oxacillin susceptible (n=41)
[7] = Staphylococcus aureus, Staphylococcus aureus oxacillin resistant (n=57)
[8] = β-lactamase positive and erythromycin resistant (n = 10)
[9] = extended spectrum β-lactamase negative (n = 30)
[10] = extended spectrum β-lactamase positive (n = 20)
[11] = Streptococcus pyogenes (n = 100)
[12] = erythromycin resistant C phenotype [MLSB] (n = 20)
[13] = erythromycin resistant I phenotype [MLSB] (n = 20)
[14] = erythromycin resistant M phenotype (n = 20)

C[C@@H]1CN(c2c(F)c(N)c3c(=O)c(C(=O)O)cn(C4CC4)c3c2F)C[C@H](C)N1 [Sparfloxacin, sparfloxacin]
0.25 to 1 µg/mL: MIC Range (Streptococcus pyogenes [1]) | MIC (Staphylococcus aureus [4]; [8]) | MIC (Streptococcus pyogenes [5]; [12]) | MIC (Streptococcus pyogenes [5]; [14]) | MIC (Streptococcus pyogenes [5]; fully susceptible (n = 20)) | MIC (Streptococcus pyogenes [5]; multi-drug resistant (n = 20))
2 µg/mL and 0.125 µg/mL: MIC [2]
0.06 to 1 µg/mL: MIC (Staphylococcus aureus [4]; Staphylococcus aureus (n = 50)) | MIC (Staphylococcus aureus [4]; β-lactamase negative (n = 20)) | MIC (Streptococcus pyogenes [5]; [11]) | MIC (Streptococcus pyogenes [5]; [13])
0.125 µg/mL: MIC ([2]; Veillonella dispar, ATCC17748) | MIC90 (Staphylococcus aureus [3]; [6]) | MIC (Staphylococcus aureus [3]; Staphylococcus aureus, strain TMS1* (spontaneous mutant resistant to ciprofloxacin))
1 µg/mL: MIC90 (Streptococcus pyogenes [1]) | MIC ([2]; Bacteroides fragilis, ATCC25285, Bacteroides fragilis ATCC25285, read-out: MIC) | MIC ([2]; Bacteroides fragilis, Bacteroides fragilis GA15562, read-out: MIC) | MIC ([2]; Bacteroides fragilis, Bacteroides fragilis GA-I0558, read-out: MIC) | MIC ([2]; Bacteroides fragilis, Bacteroides fragilis GA-I7955, read-out: MIC) | MIC ([2]; Bacteroides fragilis, Bacteroides fragilis GAI10150, read-out: MIC) | MIC ([2]; Bacteroides fragilis, Bacteroides fragilis GAI30144, read-out: MIC) | MIC ([2]; Bacteroides fragilis, NCTC10581, Bacteroides fragilis NCTC10581, read-out: MIC) | MIC ([2]; Bacteroides uniformis, ATCC8492, Bacteroides uniformis ATCC8492, read-out: MIC) | MIC ([2]; Fusobacterium necrophorum, ATCC25286, Fusobacterium necrophorum ATCC25286, read-out: MIC) | MIC ([2]; Fusobacterium nucleatum, ATCC25586, Fusobacterium nucleatum ATCC25586, read-out: MIC) | MIC90 (Streptococcus pyogenes [5]; [11]) | MIC90 (Streptococcus pyogenes [5]; fully susceptible (n = 20)) | MIC50 (Streptococcus pyogenes [5]; multi-drug resistant (n = 20)) | MIC90 (Streptococcus pyogenes [5]; multi-drug resistant (n = 20))
32 µg/mL: MIC50 (Enterococcus faecium; Enterococcus faecium (n=39)) | MIC (Enterococcus faecium; Enterococcus faecium (vanA) vancomycin resistant, strain TMS1) | MIC (Enterococcus faecium; Enterococcus laecium (van B) vancomycin resistant, strain TMS7) | MIC90 (Staphylococcus aureus [3]; [7])
128 µg/mL: MIC (Staphylococcus aureus [3]; Staphylococcus aureus, strain TMS3, read-out: MIC)
0.12 µg/mL: MIC90 (Klebsiella pneumoniae; [9])
0.031 µg/mL: MIC90 (Moraxella catarrhalis)
0.5 µg/mL: MIC (Enterococcus faecium; Enterococcus faecium (vanA) vancomycin resistant, strain TMS2) | MIC50 (Streptococcus pyogenes [1]; read-out: MIC50) | MIC ([2]; Bilophilla wadsworthia WAL7959, read-out: MIC) | MIC ([2]; Prevotella heparinolytica, ATCC35895, Prevotella heparinolytica ATCC35895, read-out: MIC) | MIC50 (Staphylococcus aureus [4]; Staphylococcus aureus (n = 50)) | MIC90 (Staphylococcus aureus [4]; Staphylococcus aureus (n = 50)) | MIC50 (Staphylococcus aureus [4]; β-lactamase negative (n = 20)) | MIC90 (Staphylococcus aureus [4]; β-lactamase negative (n = 20)) | MIC50 (Staphylococcus aureus [4]; β-lactamase positive (n = 20)) | MIC90 (Staphylococcus aureus [4]; β-lactamase positive (n = 20)) | MIC90 (Staphylococcus aureus [4]; [8]) | MIC90 (Klebsiella pneumoniae; Klebsiella pneumoniae (n = 50)) | MIC50 (Klebsiella pneumoniae; [10]) | MIC90 (Klebsiella pneumoniae; [10]) | MIC50 (Streptococcus pyogenes [5]; [11]) | MIC50 (Streptococcus pyogenes [5]; [13]) | MIC90 (Streptococcus pyogenes [5]; [13]) | MIC50 (Streptococcus pyogenes [5]; [14]) | MIC90 (Streptococcus pyogenes [5]; [14]) | MIC50 (Streptococcus pyogenes [5]; fully susceptible (n = 20))
0.12 to 1 µg/mL: MIC (Staphylococcus aureus [4]; β-lactamase positive (n = 20))
0.032 to 1 µg/mL: MIC Range (Staphylococcus aureus [3]; [6])
0.016 to 0.031 µg/mL: MIC Range (Moraxella catarrhalis)
0.063 µg/mL: MIC50 (Staphylococcus aureus [3]; Staphylococcus aureus, Staphylococcus aureus oxacillin susceptible (n=41))
≤ 0.03 µg/mL: MIC ([2]; Campylobacter gracilis, JCM8538, Campylobacter gracilis JCM8538, read-out: MIC) | MIC ([2]; Capnocytophaga ochracea, Capnocytophaga ochracea GAI5586, read-out: MIC)
0.5 to 128 µg/mL: MIC Range (Enterococcus faecium; Enterococcus faecium (n=39))
0.063 to 64 µg/mL: MIC Range (Serratia marcescens)
0.016 µg/mL: MIC50 (Moraxella catarrhalis)
≤0.0075 to 0.25 µg/mL: MIC Range (Klebsiella pneumoniae; [9])
64 µg/mL: MIC90 (Enterococcus faecium; Enterococcus faecium (n=39)) | MIC (Enterococcus faecium; Enterococcus faecium (vanA) vancomycin resistant, strain TMS3) | MIC (Enterococcus faecium; Enterococcus faecium (vanA) vancomycin resistant, strain TMS4) | MIC (Enterococcus faecium; Enterococcus laecium (van B) vancomycin resistant, strain TMS6)
8 µg/mL: MIC ([2]; Fusobacterium varium, ATCC8501, Fusobacterium varium ATCC8501, read-out: MIC) | MIC ([2]; Prevotella bivia, ATCC29303, Prevotella bivia ATCC29303, read-out: MIC) | MIC (Staphylococcus aureus [3]; Staphylococcus aureus, strain TMS4, read-out: MIC) | MIC (Staphylococcus aureus [3]; Staphylococcus aureus, strain TMS5, read-out: MIC)
0.032 to 128 µg/mL: MIC Range (Staphylococcus aureus [3]; Staphylococcus aureus oxacillin resistant (n=57))
≤0.0075 to 1 µg/mL: MIC Range (Klebsiella pneumoniae; Klebsiella pneumoniae (n = 50))
0.25 µg/mL: MIC ([2]; Porphyromonas asaccharolytica, ATCC25260, Porphyromonas asaccharolytica ATCC25260, read-out: MIC) | MIC ([2]; Sutterella wadsworthensis, ATCC51579, Sutterella wadsworthensis ATCC51579, read-out: MIC) | MIC ([2]; Veillonella parvula, ATCC10790, Veillonella parvula ATCC10790, read-out: MIC) | MIC50 (Serratia marcescens; read-out: MIC50) | MIC50 (Staphylococcus aureus [4]; [8]) | MIC50 (Streptococcus pyogenes [5]; [12]) | MIC90 (Streptococcus pyogenes [5]; [12])
0.03 µg/mL: MIC50 (Klebsiella pneumoniae; [9])
0.06 µg/mL: MIC ([2]; Campylobacter ureolyticus, NCTC10941, Bacteroides ureolyticus NCTC10941, read-out: MIC) | MIC ([2]; Desullomonas pigra DSM749, read-out: MIC) | MIC50 (Klebsiella pneumoniae; Klebsiella pneumoniae (n = 50))
4 µg/mL: MIC ([2]; Bacteroides eggerthii, ATCC27754, Bacteroides eggerthii ATCC27754, read-out: MIC) | MIC ([2]; Hoylesella oralis, ATCC33269, Prevotella oralis ATCC33269, read-out: MIC) | MIC50 (Staphylococcus aureus [3]; [7])
2 µg/mL: MIC (Enterococcus faecium; Enterococcus faecium (vanA) vancomycin resistant, strain TMS5) | MIC ([2]; Bacteroides fragilis, Bacteroides fragilis GAI30079, read-out: MIC) | MIC ([2]; Bacteroides ovatus, ATCC8483, Bacteroides ovatus ATCC8483, read-out: MIC) | MIC ([2]; Bacteroides thetaiotaomicron, ATCC29741, Bacteroides thetaiotaomicron ATCC29741, read-out: MIC) | MIC ([2]; Parabacteroides distasonis, ATCC8503, Bacteroides distasonis ATCC8503, read-out: MIC) | MIC ([2]; Phocaeicola vulgatus, ATCC8482, Bacteroides vulgatus ATCC8482, read-out: MIC) | MIC ([2]; Prevotella buccaeATCC33574, read-out: MIC) | MIC ([2]; Prevotella corporis, Prevotella corporis GAI91000, read-out: MIC) | MIC ([2]; Prevotella melaninogenica, Prevotella melaninogenica GAI5490, read-out: MIC) | MIC ([2]; Segatella oris, ATCC33573, Prevotella oris ATCC33573, read-out: MIC) | MIC90 (Serratia marcescens) | MIC (Staphylococcus aureus [3]; Staphylococcus aureus, strain TMS6, read-out: MIC)
0.03 to 0.5 µg/mL: MIC Range (Klebsiella pneumoniae; [10])
